Assays:
plasma total PYY [1] = test: Effect of oral GPR119 agonist on plasma total PYY in wild-type littermates (paper example); format: in vivo, wild-type mice; conditions: 20 mg/kg per orally; glucose bolus 3 g/kg; blood at 0 and 5 min
Protocol: (§1) GPR119-deficient male mice (Chu et al, Endocrinology (2007) 148:2601-2609) and wild-type littermates are fasted for 18 hours. Mice are administered per orally with vehicle (80% polyethylene glycol 400/10% ethanol/10% Tween 80) or with a GPR119 agonist in accordance with the present invention (Compound 1; (2-Fluoro-4-methanesulfonyl-phenyl)-{6-[4-(3-isopropyl-[1,2,4]oxadiazol-5-yl)-piperidin-1-yl]-5-nitro-pyrimidin-4-yl}-amine) at 20 mg/kg. Thirty minutes after treatment, blood (100 microliter) is collected via retro orbital vein of the eye (time 0 minutes) followed by a glucose bolus at 3 g/kg (per orally). Five minutes after delivering glucose, another blood sample (100 microliter) is collected (time 5 minutes). Plasma are collected after centrifugation and plasma total PYY levels are determined by using PYY EIA kit purchased from Phoenix Pharmaceuticals, Inc. (Peptide YY (PYY) (Rat, Mouse, Porcine, Canine) EIA kit, Catalog No. EK-059-03) according to instructions provided in the kit. It can be further shown that functional GPR119 receptor is necessary for the administered GPR119 agonist to increase plasma total PYY in the mice. […] Compound 1 is identical to a compound disclosed in International Patent Application No. PCT/US2004/001267 (published as WO 2004/065380).

human GPR119 receptor = target: T1, human GPR119 receptor (Homo sapiens, UniProt Q8TDV5); test: cAMP assay (Flash Plate adenylyl cyclase kit) in GPR119-transfected HEK293 cells; format: cell-based; conditions: GPR119-transfected HEK293 cells vs empty vector; 60 min at room temperature; FIG. 2
T1 construct: Full-Length Cloning of Endogenous Human GPR119; expressed in transfected cells; host or cells: HEK293 cells, transient transfection with Lipofectamine
T1 sequence (Q8TDV5 1-335): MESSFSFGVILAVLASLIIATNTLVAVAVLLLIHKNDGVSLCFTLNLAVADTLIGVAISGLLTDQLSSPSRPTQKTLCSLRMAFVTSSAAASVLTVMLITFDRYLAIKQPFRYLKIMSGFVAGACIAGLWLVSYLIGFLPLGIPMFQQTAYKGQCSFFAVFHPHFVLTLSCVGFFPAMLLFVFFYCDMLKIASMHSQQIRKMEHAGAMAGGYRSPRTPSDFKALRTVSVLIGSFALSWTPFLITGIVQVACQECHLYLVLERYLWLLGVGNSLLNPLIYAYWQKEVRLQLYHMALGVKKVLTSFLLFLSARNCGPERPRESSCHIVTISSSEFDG
Protocol: Briefly, HEK293 cells were transfected with either empty vector DNA (“Vector”) or human GPR119 receptor expression plasmid DNA (“GPR119”) using Lipofectamine (Invitrogen, Carlsbad, Calif.). After 24 h, transfected cells were harvested in GIBCO (Gaithersburg, Md.) cell dissociation buffer (Catalog no. 13151-014) and resuspended in assay buffer (50% 1×PBS/50% stimulation buffer). Compound 1 was incubated with 10^5 cells per well for 60 min at room temperature. After another 2-h incubation with tracer in detection buffer, plates were counted in a Wallac (Gaithersburg, Md.) MicroBeta scintillation counter. Values of cAMP per well were extrapolated from a standard cAMP curve that was included on each assay plate.

plasma total PYY [2] = test: Effect of oral GPR119 agonist on plasma total PYY in wild-type mice (PYY EIA kit); format: in vivo, C57BL/6 male mice; conditions: 10 mg/kg per orally; fasted 18 h; glucose bolus 3 g/kg 30 min after treatment; blood at 0, 2, 5, 10 min; FIG. 3
Protocol: C57BL/6 male mice (approximately 8 weeks of age; obtained from Harlan, Indianapolis, Ind.) were fasted for 18 hours, and randomly assigned into eight groups with n=6 for each group. Mice were administered per orally with vehicle (80% polyethylene glycol 400/10% Tween 80/10% ethanol) or with a GPR119 agonist (Compound 1; (2-Fluoro-4-methanesulfonyl-phenyl)-{6-[4-(3-isopropyl-[1,2,4]oxadiazol-5-yl)-piperidin-1-yl]-5-nitro-pyrimidin-4-yl}-amine) at 10 mg/kg, as indicated in FIG. 3. Thirty minutes after treatment, a glucose bolus at 3 g/kg was delivered per orally, and blood was collected at 0 minute (no glucose bolus), 2 minutes, 5 minutes, and 10 minutes after glucose bolus. Plasma total PYY (inclusive of PYY1-36 and PYY3-36) levels were determined by using a PYY EIA kit purchased from Phoenix Pharmaceuticals, Inc. (Peptide YY (PYY) (Rat, Mouse, Porcine, Canine) EIA kit, Catalog No. EK-059-03) according to instructions provided in the kit. […] From the results shown in FIG. 3, it is apparent that the GPR119 agonist (Compound 1) stimulated plasma total PYY in the mice. Compound 1 is identical to a compound disclosed in International Patent Application No. PCT/US2004/001267 (published as WO 2004/065380).

plasma total PYY [3] = test: Effect of oral GPR119 agonist on plasma total PYY in GPR119-deficient (knockout) mice (paper example); format: in vivo, GPR119-deficient male mice; conditions: 20 mg/kg per orally; glucose bolus 3 g/kg; blood at 0 and 5 min
Protocol: as §1

[4] = humans, cited from earlier work

Molecule | effect on plasma total PYY in wild-type mice (plasma total PYY [1]) | agonist activity at GPR119 receptor (stimulation of cAMP accumulation) (human GPR119 receptor) | effect on plasma total PYY (inclusive of PYY1-36 and PYY3-36) (plasma total PYY [2]) | effect on plasma total PYY in GPR119-deficient mice (plasma total PYY [3]) | time of decline of serum PYY3-36 to basal levels ([4]; after infusion) [min] | time to peak serum levels of PYY3-36 ([4]; infusion to reach normal postprandial circulatory concentrations) [min] | reduction of food intake ([4]; infusion, over 24 hours) [%]
CC(C)c1noc(C2CCN(c3ncnc(Nc4ccc(S(C)(=O)=O)cc4F)c3[N+](=O)[O-])CC2)n1 [Compound 1, (2-Fluoro-4-methanesulfonyl-phenyl)-{6-[4-(3-isopropyl-[1,2,4]oxadiazol-5-yl)-piperidin-1-yl]-5-nitro-pyrimidin-4-yl}-amine] | stimulate plasma total PYY in the wild-type mice | agonist of GPR119 receptor | increased plasma total PYY | not in the GPR119-deficient mice | – | – | –
PYY3-36: generated from PYY1-36 by cleavage of the N-terminal Tyr and Pro residues by dipeptidyl peptidase IV; high-affinity Y2R selective agonist | – | – | – | – | ≤ 30 | ≤ 15 | 33
